Results on 13 molecules are retold here after patent publication US5776903A, “Peptide derivatives usable as zinc endopeptidase 24-15 inhibitors” (Commissariat A l'Energie Atomique, priority 1995, dated 1998).

For experiment [1], the target named is endopeptidase 24-15 of the rat (Rattus norvegicus, UniProt P24155). The settings on record: as described by Dando et al; read-out: inhibition constant Ki with respect to endopeptidase 24-15 of the rat; cited from earlier work.
Experiment [2] concerns the target endopeptidase 24-16 (Homo sapiens, UniProt Q9BYT8). Put plainly: Inhibition of neurotensin degradation by purified endopeptidase 24-16 (HPLC), inhibition constant Ki. The class given is biochemical. As to conditions: neurotensin 20 μmole/l, 1 hour at 30° C., tris-HCl pH 7.5. The method, then: This example studies the inhibiting effect of the peptides of the invention with respect to endopeptidase 24-16.
To this end, incubation takes place for 1 hour at 30° C. of 2 nmole (20 μmole/l) of neurotensin, which is a known endopeptidase 24-16 substrate with 8 μg of endopeptidase 24-16 purified in a final volume of 100 μl of tris-HCl buffer, 50 mM, pH 7.5, in the absence of peptide (control) or in the presence of the peptide tested at concentrations from 10^-11 to 10^-7 mole/l. After 1 hour of incubation analysis takes place of the solutions by HPLC and the inhibition constant Ki of the tested peptide is determined.

Experiment [3] has as its target endopeptidase 24-15 (Rattus norvegicus, UniProt P24155). Put plainly: Inhibition of neurotensin degradation by purified endopeptidase 24-15 (HPLC), inhibition constant Ki. The settings on record: for SELECTIVITY (ratio Ki24-16 /Ki24-15): selectivity relative to endopeptidase 24-16.
Description: Incubation takes place for 1 hour at 37° C. of 2 nmole (20 μmole/l) of neurotensin, which is a known endopeptidase 24-15 substrate, with 7 μg of purified endopeptidase 24-15 in a final volume of 100 μl of tris-HCl buffer, 50 nM, pH 7.5, in the absence of an inhibitor (control) or in the presence of the peptide tested at concentrations from 10^-11 to 10^-7 mole/l. After 1 hour incubation analysis takes place of the solutions by HPLC. On the basis of this analysis the inhibition constant Ki of the tested peptide is determined.

endopeptidase 24-16, sequence (Q9BYT8 38-704): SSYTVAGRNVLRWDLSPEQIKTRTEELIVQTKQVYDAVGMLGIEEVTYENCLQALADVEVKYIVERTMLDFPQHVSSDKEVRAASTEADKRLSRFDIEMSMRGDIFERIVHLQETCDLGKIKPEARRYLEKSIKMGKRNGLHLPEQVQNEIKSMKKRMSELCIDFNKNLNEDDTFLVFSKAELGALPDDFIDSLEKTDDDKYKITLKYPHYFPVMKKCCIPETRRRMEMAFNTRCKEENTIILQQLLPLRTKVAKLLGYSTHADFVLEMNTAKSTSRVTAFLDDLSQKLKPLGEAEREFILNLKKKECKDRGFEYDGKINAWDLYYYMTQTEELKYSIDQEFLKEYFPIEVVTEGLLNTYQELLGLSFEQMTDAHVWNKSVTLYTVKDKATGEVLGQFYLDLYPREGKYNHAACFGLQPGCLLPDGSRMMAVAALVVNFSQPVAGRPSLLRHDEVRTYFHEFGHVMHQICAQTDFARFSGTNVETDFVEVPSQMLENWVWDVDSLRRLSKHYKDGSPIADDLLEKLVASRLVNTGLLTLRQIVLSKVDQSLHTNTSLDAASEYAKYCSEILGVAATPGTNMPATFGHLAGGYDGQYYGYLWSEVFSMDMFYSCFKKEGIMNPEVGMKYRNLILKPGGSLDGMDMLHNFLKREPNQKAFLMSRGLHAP
endopeptidase 24-15, sequence (P24155 whole entry): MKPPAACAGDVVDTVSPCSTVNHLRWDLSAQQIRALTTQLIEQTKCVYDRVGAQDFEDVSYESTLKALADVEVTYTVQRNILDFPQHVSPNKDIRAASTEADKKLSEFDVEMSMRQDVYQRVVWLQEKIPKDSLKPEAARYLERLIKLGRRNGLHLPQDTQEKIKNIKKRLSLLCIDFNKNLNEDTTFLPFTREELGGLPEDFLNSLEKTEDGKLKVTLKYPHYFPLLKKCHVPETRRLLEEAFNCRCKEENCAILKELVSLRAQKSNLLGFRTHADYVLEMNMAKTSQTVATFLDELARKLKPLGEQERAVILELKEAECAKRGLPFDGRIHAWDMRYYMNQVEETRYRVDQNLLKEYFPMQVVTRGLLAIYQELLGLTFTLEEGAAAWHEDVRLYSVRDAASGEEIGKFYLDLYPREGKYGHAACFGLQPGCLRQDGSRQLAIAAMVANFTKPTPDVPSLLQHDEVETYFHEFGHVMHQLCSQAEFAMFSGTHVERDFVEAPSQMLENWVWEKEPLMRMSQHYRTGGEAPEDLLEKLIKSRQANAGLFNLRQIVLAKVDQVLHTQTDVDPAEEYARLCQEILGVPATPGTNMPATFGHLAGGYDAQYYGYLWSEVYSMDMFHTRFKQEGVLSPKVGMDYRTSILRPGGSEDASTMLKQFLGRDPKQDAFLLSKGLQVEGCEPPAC
endopeptidase 24-15 of the rat, sequence (P24155 whole entry): as above

The term Ki denotes a measure of affinity in units of concentration, obtained from inhibition or displacement. Consider Cpp-Ala-Pro-Phe-pAb, for which the inhibition constant Ki in experiment [1] is 7 nM.
Consider `CC(CP(=O)(O)C(Cc1ccccc1)NC(=O)OCc1ccccc1)C(=O)N[C@@H](CCCCN)C(=O)N[C@@H](Cc1ccccc1)C(=O)O` (mixture of isomers) [compound 25, Z--Phe .PSI. (PO2 CH2)Ala--Lys--Phe], for which the affinity in experiment [2], expressed as Ki, was 1650 nM. Further, in experiment [3], the Ki turned out to be 1 nM and the “SELECTIVITY (ratio Ki24-16 /Ki24-15)” value turned out to be 1652.
With `C[C@H](NC(=O)[C@H](CCCNC(=N)N)NC(=O)CCP(=O)(O)C(Cc1ccccc1)NC(=O)OCc1ccccc1)C(=O)O` (mixture of isomers) [compound 3, Z--Phe .PSI. (PO2 CH2)Gly--Arg--Ala], the Ki is 201 nM in experiment [2] and 2.2 nM in experiment [3]. In addition, in experiment [3], the “SELECTIVITY (ratio Ki24-16 /Ki24-15)” value is given as 91.
For `N=C(N)NCCC[C@H](NC(=O)CCP(=O)(O)C(Cc1ccccc1)NC(=O)OCc1ccccc1)C(=O)N[C@@H](Cc1ccccc1)C(=O)O` (mixture of isomers) [compound 4, Z--Phe .PSI. (PO2 CH2)Gly--Arg--Phe], the Ki in experiment [2] is 1100 nM; in experiment [3], 2.7 nM. Besides, the “SELECTIVITY (ratio Ki24-16 /Ki24-15)” value in experiment [3] amounted to 409.
`CSCC[C@H](NC(=O)[C@H](CCCNC(=N)N)NC(=O)CCP(=O)(O)C(Cc1ccccc1)NC(=O)OCc1ccccc1)C(=O)O` (mixture of isomers) [compound 1, Z--Phe .PSI. (PO2 CH2)Gly--Arg--Met]: the figures for the Ki in experiment [2] and in experiment [3] were 132 nM and 0.35 nM, respectively. Besides, in experiment [3], the “SELECTIVITY (ratio Ki24-16 /Ki24-15)” value was 377.
Regarding `N=C(N)NCCC[C@H](NC(=O)CCP(=O)(O)C(Cc1ccccc1)NC(=O)OCc1ccccc1)C(=O)N[C@@H](CCC(=O)O)C(=O)O` (mixture of isomers) [compound 19, Z--Phe .PSI. (PO2 CH2)Gly--Arg--Glu], the Ki in experiment [2] is 8150 nM; in experiment [3] it was 163 nM. Moreover, the “SELECTIVITY (ratio Ki24-16 /Ki24-15)” value in experiment [3] is listed as 50.
In experiment [2], `N=C(N)NCCC[C@H](NC(=O)CCP(=O)(O)C(Cc1ccccc1)NC(=O)OCc1ccccc1)C(=O)N[C@@H](CCCCN)C(=O)O` (mixture of isomers) [compound 18, Z--Phe .PSI. (PO2 CH2)Gly--Arg--Lys] registered a Ki of 25700 nM. Moreover, in experiment [3], the affinity, expressed as Ki, was 138 nM and the “SELECTIVITY (ratio Ki24-16 /Ki24-15)” value stood at 186.
In the same order, the values of `C[C@@H](O)[C@H](NC(=O)[C@H](CCCNC(=N)N)NC(=O)CCP(=O)(O)C(Cc1ccccc1)NC(=O)OCc1ccccc1)C(=O)O` (mixture of isomers) [compound 17, Z--Phe .PSI. (PO2 CH2)Gly--Arg--Thr] are 3640 nM, 35.2 nM and 103.
For the molecule `N=C(N)NCCC[C@H](NC(=O)CCP(=O)(O)C(Cc1ccccc1)NC(=O)OCc1ccccc1)C(=O)N[C@@H](Cc1c[nH]c2ccccc12)C(=O)O` (mixture of isomers) [compound 10, Z--Phe .PSI. (PO2 CH2)Gly--Arg--Trp], the Ki in experiment [2] was 2660 nM. In experiment [3], the Ki worked out at 13.1 nM and the “SELECTIVITY (ratio Ki24-16 /Ki24-15)” value turned out to be 203.
`CC(C)C[C@H](NC(=O)[C@H](CCCNC(=N)N)NC(=O)CCP(=O)(O)C(Cc1ccccc1)NC(=O)OCc1ccccc1)C(=O)O` (mixture of isomers) [compound 6, Z--Phe .PSI. (PO2 CH2)Gly--Arg--Leu]: the Ki in experiment [2] worked out at 846 nM. In addition, in experiment [3], the affinity corresponds to a Ki of 5 nM and the “SELECTIVITY (ratio Ki24-16 /Ki24-15)” value is on record as 169.
Molecule `CC[C@H](C)[C@H](NC(=O)[C@H](CCCCN)NC(=O)C(C)CP(=O)(O)C(Cc1ccccc1)NC(=O)OCc1ccccc1)C(=O)O` (mixture of isomers) [compound 27, Z--Phe .PSI. (PO2 CH2)Ala--Lys--Ile] showed a Ki in experiment [2] of 1260 nM. Also, in experiment [3], the Ki stood at 1.94 nM and the “SELECTIVITY (ratio Ki24-16 /Ki24-15)” value came to 652.
`CC(C)[C@H](NC(=O)[C@H](CCCNC(=N)N)NC(=O)CCP(=O)(O)C(Cc1ccccc1)NC(=O)OCc1ccccc1)C(=O)O` (mixture of isomers) [compound 8, Z--Phe .PSI. (PO2 CH2)Gly--Arg--Val]: the values for the Ki in experiment [2] and in experiment [3] were 1130 nM and 9.3 nM, respectively. For the same molecule, the “SELECTIVITY (ratio Ki24-16 /Ki24-15)” value in experiment [3] is reported as 121.
Consider `CCCC[C@H](NC(=O)[C@H](CCCNC(=N)N)NC(=O)CCP(=O)(O)C(Cc1ccccc1)NC(=O)OCc1ccccc1)C(=O)O` (mixture of isomers) [compound 2, Z--Phe .PSI. (PO2 CH2)Gly--Arg--Nle], for which the Ki in experiment [2] stood at 213 nM; in experiment [3], 1.6 nM. Moreover, the “SELECTIVITY (ratio Ki24-16 /Ki24-15)” value in experiment [3] turned out to be 135.
